Assays:
Assay type in all cases: cell-based, Human
[1] = tested on: prostate cancer (PCa) cell lines; assay: XTT cell viability assay, PCa cell lines
Experimental: (§1) The […] (XTT) assays were performed as described previously. In summary, for GCT and fibroblast cell lines 5 × 10^3 cells (3 × 10^3 for UC, PCa and RCC cell lines) per 96-well were seeded and different drug concentrations (see Additional file 2: Fig. S2, Additional file 3: Fig. S3) or corresponding solvents were added to the cells the following day. For drug details see Additional file 12: Table S2 C. Each condition was analyzed in four technical replicates and EC50 values were calculated by GraphPad Prism v8.

[2] = tested on: urothelial carcinoma (UC) cell lines; assay: XTT cell viability assay, UC cell lines
Experimental: as §1

fibroblast control cells = assay: Flow cytometry apoptosis (Annexin V/PI), fibroblasts; details: EC50, 16 h
Experimental: (§2) For Annexin V/PI staining, cells were washed with Annexin V Binding Buffer before being resuspended in 70 µl Annexin V Binding Buffer and 2.5 μl Annexin V FITC-conjugate (both Miltenyi Biotec, Bergisch Gladbach, Germany) and 15 µg PI (Sigma-Aldrich, Taufkirchen, Germany) and incubated in the dark at room temperature for 15 min. 500 µl of Annexin V Binding Buffer was added before measurement. For the cell cycle analysis, cells were washed with PBS (phosphate buffered saline), fixed by ice cold 70% ethanol and stained with 2 µg/ml PI and 200 µg/ml RNaseA (Quiagen, Hilden, Germany 100 mg/ml) in PBS shortly before every measurement. At least 5 × 10^4 cells were counted and analyzed using the MACSQuant software v 2.13.0.

[3] = tested on: H2AK119ub in 2102EP cells; assay: Western blot of histone extracts; details: after 48 h of treatment
Experimental: Western Blots were performed as described previously. In total, 20 µg of whole cell protein lysates or 3 µg of histone extract were used for western blotting. β-Actin was used as housekeeper and loading control for whole cell lysates. Western blots of histone extracts were stained with Coomassie Brilliant Blue R 250 (Roth, Karlsruhe, Germany) and total H3 or H4 antibody to verify equal loading. For antibody details, see supplement (Additional file 12: Table S2 D). The ChemiDoc Imaging System (Bio-Rad Laboratories, Feldkirchen, Germany) was used for detection. Pixel density was analyzed using the ‘Image Lab’ software provided by Bio-Rad.

YST (GCT72) = assay: Flow cytometry apoptosis (Annexin V/PI), YST; details: EC50, 16 h
Experimental: as §2

CC (JAR) = assay: Flow cytometry apoptosis (Annexin V/PI), CC; details: EC50, 16 h
Experimental: as §2

[4] = Homo sapiens; mean of three cell lines, 48 h
[5] = Homo sapiens, 48 h, mean of three cell lines

Molecule `CN1C(=O)[C@@]23C[C@]4([C@]56C[C@@]78SS[C@@](CO)(C(=O)N7[C@H]5Nc5ccccc56)N(C)C8=O)c5ccccc5N[C@@H]4N2C(=O)[C@]1(CO)SS3` [Chaetocin] has an EC50 [1, 4] of 233 nM and an EC50 [2, 4] of 99.6 nM.

`Cn1cc(CNCC2CCN(c3ncc(C(=O)NO)cn3)CC2)c2ccccc21` [Quisinostat] gave an EC50 [1, 5] of 22.2 nM, an EC50 ([1]; mean of three cell lines, 48 h) of 22.2 nM and an EC50 [2, 5] of 17.2 nM. For the same molecule, the EC50 ([2]; mean of three cell lines, 48 h) was 17.2 nM.

With `O=C1C(=Cc2cccnc2)C(=O)c2ccccc21` [PRT4165] the “apoptosis induction in fibroblast control cells” value (fibroblast control cells) was “only a weak apoptosis induction” and the “H2AK119ub by western blot” value [3] was “decreased H2AK119ub”.

With `CCCc1cc(C)[nH]c(=O)c1CNC(=O)c1cc(-c2ccnc(N3CCN(C)CC3)c2)cc2c1cnn2C(C)C` [GSK343] the “apoptosis induction in GCT72” value (YST (GCT72)) was “negligible” and the “apoptosis induction in JAR” value (CC (JAR)) was “negligible”.
